From patent US20250129096A1, “ANNULATED 2-AMINO-3-CYANO THIOPHENES AND DERIVATIVES FOR THE TREATMENT OF CANCER” (Boehringer Ingelheim Int'l GmbH Corp., priority 2021, published 2025)

Assays:
[1] = biological target: T1, KRAS (WT)::SOS1 (Homo sapiens, UniProt P01116, C118S); experiment: KRAS::SOS1 AlphaScreen binding assay, KRAS WT
T1 construct: KRAS (WT) 1-169, N-terminal 6His-tag for purification, cleaved off; 6His-tag (N, cleaved yes); TEV cleavage site
Description: (§1) Low IC50 values in this assay setting are indicative of strong inhibition of protein-protein interaction between SOS1 and KRAS:
(§2) These assays measure the inhibitory effect of compounds on KRAS mutant protein-protein interactions using the Alpha Screen technology by Perkin Elmer.
(§3) For the chosen highest assay concentration of 100 μM, 150 nL of compound solution are transferred from a 10 mM DMSO compound stock solution. A series of eleven fivefold dilutions per compound are transferred to the assay plate, compound dilutions are tested in duplicates. DMSO are added as backfill to a total volume of 150 nL.
(§4) The assays run on a fully automated robotic system in a darkened room below 100 Lux. To 150 nl of compound dilution 10 μl of a mix including KRAS mutant protein, SOS1 (final assay concentrations see above) and GDP nucleotide (Sigma G7127; final assay concentration 10 μM) in assay buffer (1×PBS, 0.1% BSA, 0.05% Tween 20) are added into columns 1-24. After 30 minutes incubation time 5 μl of Alpha Screen bead mix in assay buffer are added into columns 1-23.
(§5) Plates are kept at room temperature in a darkened incubator. After an additional 60 minutes incubation time the signal is measured in a PerkinElmer Envision HTS Multilabel Reader using the AlphaScreen specs from PerkinElmer.
(§6) IC50 values are calculated and analyzed with Boehringer Ingelheim's MEGALAB IC50 application using a 4 parametric logistic model.

[2] = biological target: T2, CYP3A4 (Homo sapiens, UniProt P08684); experiment: Mechanism based inhibition of CYP3A4 assay (MBI 3A4); type: in vitro ADME; conditions: 25 uM, hydroxy-midazolam formation after 30 min preincubation relative to 0 min, human liver microsomes
T2 construct: assayed in human liver microsomes (0.02 mg/mL) with midazolam (15 μM) as a substrate; from tissue; host or cells: human liver microsomes
Description: After preincubation, the incubate is diluted 1:10 and the substrate midazolam is added for the main incubation (15 min). The main incubation is quenched with acetonitrile and the formation of hydroxy-midazolam is quantified via LC/MS-MS. The formation of hydroxy-midazolam from the 30 min preincubation relative to the formation from the 0 min preincubation is used as a readout. Values of less than 100% mean that the substrate midazolam is metabolized to a lower extent upon 30 min preincubation compared to 0 min preincubation. In general low effects upon 30 min preincubation are desired (corresponding to values close to 100%/not different to the values determined with water control).

[3] = biological target: T3, KRAS (G12V)::SOS1 (Homo sapiens, UniProt P01116, C118S/G12V); experiment: KRAS::SOS1 AlphaScreen binding assay, KRAS G12V
T3 construct: KRAS (G12V) 1-169, N-terminal 6His-tag, for purification, cleaved off; 6His-tag (N, cleaved yes); TEV cleavage site
Description: as §1, §2, §3, §4, §5, §6

[4] = tested on: MKN1 cells (gastric cancer, wt amplified); experiment: MKN1 CTG proliferation assay (120 h), assay 1; type: cell-based; conditions: Homo sapiens, MKN-1, CellTiter-Glo, 400 cells per well
Description: (§7) MKN1 cells (JCRB0252) are dispensed into white 384-well plates, flat and white bottom (Corning Costar, PNr.: 3570) at a density of 400 cells per well in 50 μL RPMI 1640 (PAN-Biotech, PNr.: P04-18047)+10% FCS (HyClone, PNr.: SH30084.03) (assay 1) or into black 384-well plates, flat and clear bottom (Greiner, PNr. 781091) at a density of 200 cells per well in 60 μl RPMI-1640 (Gibco #A10491)+10% FCS (HyClone, PNr.: SH30084.03)+ PenStrep (Gibco, PNr. 15140-122) (assay 2). […] Compounds (10 mM stock in DMSO) are added at logarithmic dose series using the HP Digital Dispenser D300 (Tecan) (assay 1+2) or the ECHO acoustic liquid handler system (Beckman Coulter) (assay 3), including DMSO controls and normalizing for added DMSO. Plates are incubated for 120 h, and cell viability is measured using CellTiter-Glo luminescent cell viability reagent (Promega product code G7570). Viability (stated as percent of control) is defined as relative luminescence units RLU of each well divided by the RLU of cells in DMSO controls. IC50 values are determined from viability measurements by non-linear regression using a four-parameter model.

[5] = tested on: MKN1 cells (gastric cancer, wt amplified); experiment: MKN1 CTG proliferation assay (120 h), assay 2; type: cell-based; conditions: Homo sapiens, MKN-1, CellTiter-Glo, 200 cells per well
Description: as §7

[6] = tested on: A375 cells (melanoma, wt, B-Raf mutant); experiment: A375 CTG proliferation assay (120 h), negative control; type: cell-based; conditions: Homo sapiens, A-375, CellTiter-Glo, negative control cell line
Description: A375 cells (ATCC CRL-1619) are dispensed into 384-well plates, flat and clear bottom (Greiner, PNr. 781091) at a density of 300 cells per well in 60 μL DMEM (Sigma D6429)+10% Fetal Calf Serum (HyClone, PNr.: SH30084.03) and incubated at 37° C. in a CO2 incubator overnight. The next day, compounds (10 mM stock in DMSO) are added at logarithmic dose series using the HP Digital Dispenser D300 (Tecan), including DMSO controls. Plates are incubated for 120 h, and cell viability is measured using CellTiter-Glo luminescent cell viability reagent (Promega product code G7570). Viability (stated as percent of control) is defined as relative luminescence units RLU of each well divided by the RLU of cells in DMSO controls. IC50 values are determined from viability measurements by non-linear regression using a four-parameter model.

[7] = biological target: T4, KRAS (G13D)::SOS1 (Homo sapiens, UniProt P01116, C118S/G13D); experiment: KRAS::SOS1 AlphaScreen binding assay, KRAS G13D
T4 construct: KRAS (G13D) 1-169, N-terminal 6His-tag for purification, cleaved off; 6His-tag (N, cleaved yes); TEV cleavage site
Description: as §1, §2, §3
as §4, with “After 30 minutes incubation time 5 μl of Alpha Screen bead mix in assay buffer are added into columns 1-23.” left out
as §5, §6

T3 sequence (P01116 1-169 isoform P01116-2 G12V/C118S): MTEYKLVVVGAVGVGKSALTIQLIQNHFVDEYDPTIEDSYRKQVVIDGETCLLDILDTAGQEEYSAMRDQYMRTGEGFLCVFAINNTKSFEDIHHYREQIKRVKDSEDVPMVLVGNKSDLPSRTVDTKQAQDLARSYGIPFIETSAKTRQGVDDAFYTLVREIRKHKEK
T2 sequence (P08684 whole entry): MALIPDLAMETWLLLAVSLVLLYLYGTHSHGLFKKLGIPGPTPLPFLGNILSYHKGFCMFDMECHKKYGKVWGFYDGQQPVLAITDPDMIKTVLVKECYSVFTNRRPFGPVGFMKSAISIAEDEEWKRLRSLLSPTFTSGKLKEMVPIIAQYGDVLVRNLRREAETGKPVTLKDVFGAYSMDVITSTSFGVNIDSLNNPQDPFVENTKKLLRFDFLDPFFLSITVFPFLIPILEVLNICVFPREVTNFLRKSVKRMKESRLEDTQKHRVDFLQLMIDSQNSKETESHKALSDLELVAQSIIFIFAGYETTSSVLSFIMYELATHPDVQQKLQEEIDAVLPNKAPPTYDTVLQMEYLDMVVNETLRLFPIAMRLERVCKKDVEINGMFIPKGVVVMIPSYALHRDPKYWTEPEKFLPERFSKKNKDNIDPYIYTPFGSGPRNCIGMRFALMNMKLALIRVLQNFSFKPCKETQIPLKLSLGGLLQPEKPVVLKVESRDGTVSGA
T1 sequence (P01116 1-169 isoform P01116-2 C118S): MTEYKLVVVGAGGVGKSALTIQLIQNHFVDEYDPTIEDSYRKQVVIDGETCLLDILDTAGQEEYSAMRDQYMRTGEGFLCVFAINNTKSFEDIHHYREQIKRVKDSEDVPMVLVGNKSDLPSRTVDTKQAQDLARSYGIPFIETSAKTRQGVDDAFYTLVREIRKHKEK
T4 sequence (P01116 1-169 isoform P01116-2 G13D/C118S): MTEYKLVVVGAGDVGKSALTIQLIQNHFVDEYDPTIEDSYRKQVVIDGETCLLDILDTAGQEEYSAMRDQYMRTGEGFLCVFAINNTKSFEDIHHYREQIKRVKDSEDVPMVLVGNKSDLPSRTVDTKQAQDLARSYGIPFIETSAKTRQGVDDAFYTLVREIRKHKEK

| SMILES | IC50 [1] [nM] | MBI 3A4 [2] [%] | IC50 [3] [nM] | IC50 [4] [nM] | IC50 [5] [nM] | IC50 [6] [nM] | IC50 [7] [nM] |
| --- | --- | --- | --- | --- | --- | --- | --- |
| C[C@H]1CNCCCN1c1nccc(-c2noc3c2CCC[C@@]32CCCc3sc(N)c(C#N)c32)n1 (single isomer, unassigned) [IIb-5] | 12 | 65 |  |  |  |  |  |
| C[C@H](Oc1ccnc(-c2noc3c2CCC[C@@]32CCCc3sc(N)c(C#N)c32)n1)[C@@H]1CCCN1C [IIb-3] | 7 | 69 | 2 |  |  |  |  |
| C[C@H]1CNCCN1c1nccc(-c2noc3c2CCC[C@@]32CCCc3sc(N)c(C#N)c32)n1 [IIf-1] |  |  |  | 290 | 2350 | > 3000 |  |
| C[C@H]1[C@@H]2CCCN2CCCN1c1nccc(-c2onc3c2CCC[C@@]32CCCc3sc(N)c(C#N)c32)n1 [Id-1] | 9 |  | 8 |  |  |  | 89 |
| C[C@H](Oc1nccc(-c2onc3c2CCC[C@@]32CCCc3sc(N)c(C#N)c32)n1)[C@@H]1C[C@@H](F)CN1C [Ie-2] |  |  | 23 |  | 3460 |  |  |
| C[C@H]1CNCCCN1c1nccc(-c2onc3c2CCC[C@@]32CCCc3sc(N)c(C#N)c32)n1 [If-1] | 43 | 60 | 201 |  |  |  | 932 |
